Data as given in patent publication US6642250B2, “1,8-naphthyridin-2(1H)-one derivatives” (Grelan Pharmaceutical Co., Ltd., priority 1999, dated 2003).

Experiments:
[1] = test system: PDE I; assay: PDE inhibition, type I PDE (cGMP substrate, calmodulin/CaCl2 added); assay type: biochemical; settings: PDE I from porcine hearts, cGMP 1 μM; read-out: Inhibition of PDE Isoenzymes (IC50) I
Experimental: (§1) The assays for PDE activity were conducted according to Nicholson et al. method (Br. J. Pharmacol., 97, 889 (1989)).
(§2) Among PDE isozymes, type I, II, III and IV PDEs as used herein were separated from porcine hearts by using an anion exchange chromatography. Type V PDE was also separated from porcine aortae with an anion exchange chromatography and used herein.
(§3) Each PDE isozyme was admixed with ethylene glycol (EG) to adjust the final EG concentration to 30%, then stored at −20° C. and diluted when used. The enzymatic activity for PDE I and V was measured using cGMP as a substrate while that for POE II, III and IV was measured using cAMP.
(§4) [^3H]-cAMP (962 GBq/mmol; Amersham, 25 μl (100,000 cpm)) or [^3H]-cGMP (962 GBq/mmol; Amersham, 25 μl (100,000 cpm)) was added together with each PDE isozyme (25 μl) to an incubation buffer solution with the composition given below to adjust the total volume to 250 μl. Each test compound was dissolved in DMSO to adjust the final concentration to 1% (2.5 μl/tube).
(§5) Incubation buffer solution (pH7.5):
(§6) Tris-HCl (50 mM), magnesium chloride (6 mM), dithiothreitol
(§7) (2.5 mM), 5-nucleotidase (4 μg/ml), bovine serum albumin
(§8) (0.23 mg/ml), and cAMP (1 μM) [or cGMP (1 μM)]
(§9) A mixture of the aforementioned test compound solution and the buffer solution was incubated at 30° C. for 20 minutes. The reaction was quenched by admixing with 1 ml of anion exchange resin slurry (AG1-X8, 200-400 meshes, chloride form; Bio-Rad) to absorb unreacted substrates.
(§10) After the reaction stopped, the mixture was centrifuged at 200×g for 10 minutes, and the resulting supernatant was collected with vials in 250 μl aliquots. To each vial was added 5 ml of ACS-II (scintillator, Amersham). The radioactivity was measured with a liquid scintillator counter for [^3H]-adenosine or [^3H]-guanosine and set as the PDE activity. The measurements were conducted under conditions wherein the enzymatic activity was elevated by adding calmodulin (20 U/ml; Amersham) and calcium chloride (0.1 mM) for PDE-I and cGMP (1 μM) for PDE II, respectively.
(§11) The % inhibition was calculated for test compounds, and IC50 (the concentration of each test compound required for 50% inhibition) was obtained by Probit method. The aforementioned rolipram ((−)-isomer, optical purity: 91% e.e.) known as the PDE IV inhibitor in the prior art was used for the reference compound in this assay.

[2] = test system: T1, PDE IV; assay: PDE inhibition, type IV PDE (cAMP substrate); assay type: biochemical; settings: PDE IV from porcine hearts, cAMP 1 μM; read-out: Inhibition of PDE Isoenzymes (IC50) IV
T1 construct: other: PDE IV from porcine hearts, cAMP 1 μM
Experimental: as §1, §2, §3, §4, §5, §6, §7, §8, §9, §10, §11
Further, for a comparison with compounds as disclosed in JP, A, 63-159382 (1988), the PDE-inhibiting activity was also measured for Compounds A and D in Table 1 of JP, A, 63-159382 (1988).

[3] = test system: actively sensitized guinea pigs; assay: Inhibition of antigen-induced immediate asthmatic response (airway resistance, Konzett-Rossler method); assay type: in vivo, guinea pig; settings: for inhibition in vivo at 3 mg/kg: Cavia porcellus, po, orally, 60 minutes prior to antigen-challenge, average of 3 animals, read-out: % Reduction of Increase in Airway Resistance; for % reduction of increase in airway resistance: oral administration at a dose of 1 mg/kg
Experimental: (1) Active Sensitization of Guinea Pigs
Male Hartley outbred guinea pigs were sensitized by administering intraperitoneally physiological saline (0.5 ml) containing ovalbumin (1 mg, antigen) and 5×10^9 inactivated Bordetella pertussis dead cells (adjuvant).
Eleven to thirteen days after the first sensitization, 0.05 ml of an ovalbumin solution (1 mg/ml) (ovalbumin is dissolved in physiological saline) was administered to the lateroabdominal region of each guinea pig intracutaneously. An establishment of sensitization was checked relying on cutaneous reaction. Only guinea pigs wherein significant reddening responses occurred 5 to 10 minutes later were employed in the next measurement test for airway resistance.
(2) Measurement for Airway Resistance in Actively Sensitized-Guinea Pigs
The guinea pigs (3 animals per group) actively sensitized in the above step (1) were employed to measure for their airway pressure according to Konzett-Rossler method (Arch. Exp. Path. Pharmakol., 195, 71 (1940)).
Thirteen days after the final sensitization, guinea pigs fasted overnight, and were on the next day anesthetized with a pentobarbital solution (60 mg/1.2 ml/kg, dissolved in physiological saline, intraperitoneal administration). After the guinea pigs were fixed in a supine position, their trachea was incised followed by insertion with one port of a 4-port cannula. Among the remaining 3 ports, 2 ports were connected to an artificial respirator (Model 683, Harvard). The animals were ventilated with 10 ml/kg of air per ventilation at a rate of 60 beats/min via the artificial respirator from the cannula. One port remainder was connected to a respiratory amplifier (AR-601G, Nihon Kohden, Japan) via an airflow resistance tube (TV-241T, Nihon Kohden, Japan) and a differential pressure transducer (TP-602T, Nihon Kohden, Japan) connected with a control box (RY-111S, Nihon Kohden, Japan). From a catheter inserted into a left carotid artery, blood pressures were monitored with a blood pressure measurement unit (AP641G, NEC Corp., Japan) via a blood pressure transducer (TP-300T, Nihon Kohden, Japan), and heart rates were recorded on a thermal recorder (WT-685G, Nihon Kohden, Japan), relying on blood pressure pulse waves after being led to a cardiograph unit (AT601G, Nihon Kohden, Japan).
After airway pressure became stable, an ovalbumin solution (1 mg/ml, dissolved in physiological saline) was administered at a dose of 1 ml/kg via a tube with which the right jugular vein of guinea pigs was cannulated. Each area under airway pressure-time curve (AUC) was obtained by measuring amplitudes of the airway pressure prior to the antigen-challenge, 1, 2, 3, 4, 5, 10, 15 and 20 minutes post-challenge, and each percent increase (%) in airway resistance was further calculated according to the following equation: [formula]
[…] Control groups received only 0.5% CMC—Na solution in an equivalent amount. The pentobarbital-anesthetization and tracheal incision were conducted 30 minutes prior to the antigen-challenge.
Each percent reduction of increase in airway resistance (each test compound-administered group versus control group) was calculated according to the equation given below. The results are shown in Table 2 wherein each value is an average of 3 animals. Rolipram as described in Assay Example 1 was used for the reference compound in this assay. [formula]
For a comparison with compounds as disclosed in JP, A, 63-159382 (1988), the percent reduction of increase in airway resistance was obtained for the compounds of the present invention (oral administration at a dose of 1 mg/kg), the compounds in Table 1 of JP, A, 63-159382 (1988) (oral administration at a dose of 1 mg/kg), and rolipram (reference compound; oral administration at a dose of 3 mg/kg), respectively, in the same assay manner as in the aforementioned Assay Example 2.

[4] = target: T2, PDE V (Sus scrofa, UniProt A0A287B475); assay: PDE inhibition, type V PDE (cGMP substrate); assay type: biochemical; settings: PDE V from porcine aortae, cGMP 1 μM; read-out: Inhibition of PDE Isoenzymes (IC50) V
T2 construct: Type V PDE was also separated from porcine aortae with an anion exchange chromatography and used herein
Experimental: as §1, §2, §3, §4, §5, §6, §7, §8, §9, §10, §11

Row | IC50 [1] [µM] | IC50 [2] [µM] | IC50 [4] [µM] | SMILES | inhibition in vivo at 3 mg/kg [3] [%] | % reduction of increase in airway resistance [3] [%]
1 | > 100 | 0.11 | 16 | O=c1c(Cc2cccnc2)cc2cccnc2n1-c1cccc([N+](=O)[O-])c1 [Example No. 2, 1-(3-Nitrophenyl)-3-(pyridin-3-ylmethyl)-1,8-naphthyridin-2(1H)-one] | 64 | –
2 | 22 | 0.06 | 13 | O=c1c(CCc2cccnc2)cc2cccnc2n1-c1cccc([N+](=O)[O-])c1 [Example No. 5, 1-(3-Nitrophenyl)-3-[2-(pyridin-3-yl)ethyl]-1,8-naphthyridin-2(1H)-one] | 90 | 86
3 | > 100 | 0.16 | 15 | O=c1c(CCc2ccncc2)cc2cccnc2n1-c1cccc([N+](=O)[O-])c1 [Example No. 6, 1-(3-Nitrophenyl)-3-[2-(pyridin-4-yl)ethyl]-1,8-naphthyridin-2(1H)-one] | 87 | –
4 | > 100 | 1.3 | 4.7 | O=c1c(CCCc2cccnc2)cc2cccnc2n1-c1cccc([N+](=O)[O-])c1 [Example No. 7, 1-(3-Nitrophenyl)-3-[3-(pyridin-3-yl)propyl]-1,8-naphthyridin-2(1H)-one] | 95 | –
5 | 83 | 1.5 | 5.1 | O=c1c(CCCCc2cccnc2)cc2cccnc2n1-c1cccc([N+](=O)[O-])c1 [Example No. 14, 1-(3-Nitrophenyl)-3-[4-(pyridin-3-yl)butyl]-1,8-naphthyridin-2(1H)-one] | 92 | –
6 | 98 | 1.9 | 7.4 | O=c1c(CCCCCc2cccnc2)cc2cccnc2n1-c1cccc([N+](=O)[O-])c1 [Example No. 16, 1-(3-Nitrophenyl)-3-[5-(pyridin-3-yl)pentyl]-1,8-naphthyridin-2(1H)-one] | 96 | –

The next lines start with the compound.

Row | SMILES | IC50 [1] [µM] | IC50 [2] [µM] | IC50 [4] [µM] | inhibition in vivo at 3 mg/kg [3] [%] | % reduction of increase in airway resistance [3] [%]
7 | COc1ccc(C2CNC(=O)C2)cc1OC1CCCC1 (single isomer, unassigned) [Rolipram, rolipram, reference compound] | > 100 | 0.78 to 3.2 | – | 65 | –
8 | O=c1c(CCCc2ccncc2)cc2cccnc2n1-c1cccc([N+](=O)[O-])c1 [Example No. 8, 1-(3-Nitrophenyl)-3-[3-(pyridin-4-yl)propyl]-1,8-naphthyridin-2(1H)-one] | > 100 | 0.44 | > 100 | 88 | 88
9 | CSc1cccc(-n2c(=O)c(CCCc3ccncc3)cc3cccnc32)c1 [Example No. 10, 1-(3-Methylthiophenyl)-3-[3-(pyridin-4-yl)propyl]-1,8-naphthyridin-2(1H)-one] | > 100 | 1.5 | 13 | 82 | –
10 | O=c1c(CCCc2ccncc2)cc2cccnc2n1-c1cccnc1 [Example No. 23, 1-(Pyridin-3-yl)-3-[3-(pyridin-4-yl)propyl]-1,8-naphthyridin-2(1H)-one] | > 100 | 1.2 | > 100 | 90 | –
